This note sets out measurements from patent US20160221965A1, “DISUBSTITUTED TRIFLUOROMETHYL PYRIMIDINONES AND THEIR USE” (BAYER PHARMA AKTIENGESELLSCHAFT, priority 2013, published 2016).

The structures appear in SMILES notation.

Holding throughout (type): cell-based
Experiment [1] has as its target T1, murine CCR2 (Mus musculus, UniProt P51683).
T1 construct: host or cells: U2OS β-arrestin cell line
Description: Functional β-arrestin recruiting test with murine MCP-1 (B-2b). Particulars: U2OS β-arrestin cell line transfected with murine CCR2; agonist murine MCP-1. How it is done:
(§1) The antagonistic action of test substances on CCR2 was determined in a β-arrestin test. The PathHunter β-arrestin GPCR test system (DiscoveRx Corporation, Ltd.) is a cell-based functional method for detecting binding of β-arrestin to an activated receptor. The molecular basis is a β-galactosidase complementation measured by the enzymatic conversion of a chemiluminescent substrate. The test cell used was a U2OS β-arrestin cell line transfected with murine CCR2 (93-0543C3, DiscoveRx Corporation, Ltd.).
(§2) The test substances were dissolved in dimethyl sulphoxide (DMSO) at a concentration of 10 mM and serially diluted with DMSO in steps of 1:3.16 for a 10-point dose/activity analysis. According to the desired test concentrations, the substances were pre-diluted in Tyrode with 2 mM CaCl2 and 0.05% BSA.
(§3) The cells, cultivated in MEM Eagle (supplemented with 10% FCS, 50 U/ml of penicillin, 50 μg/ml of streptomycin, 250 μg/ml of hygromycin and 500 μg/ml of geniticin), were sown at 2000 cells/25 μl in 384 well, μCLEAR/black cell culture plates from Greiner (#781092) and incubated at 37° C. for 24 h. The sowing medium consisted of Opti-MEM (supplemented with 1% FCS, 50 U/ml of penicillin and 50 μg/ml of streptomycin). The cells were pre-incubated for 10 min with 10 μl of the test substances diluted in buffer, and 10 μl of agonist solution [human MCP-1 (PeproTech, #300-04) in Tyrode with 0.05% BSA] were then added. The human MCP-1 was employed at the concentration which corresponds to the EC50 which had been determined in a preliminary test (usually about 3 nM). After 90 min of incubation at 37° C., the solution was removed, and recruitment of β-arrestin to CCR2 was detected with the aid of the PathHunter detection reagent (93-001, DiscoveRx Corporation, Ltd.) according to the instructions of the manufacturer. Luminescence was measured after an incubation time of 60 min using a proprietary luminescence imaging measuring instrument. The molar concentration of the test substance which caused 50% inhibition of the MCP-1 effect (IC50) was determined using a 4-parameter logistic function (Hill function).
The test was carried out in a manner identical to that described above under B-2a, but using murine MCP-1 (PeproTech, #250-10) as agonist.
For orientation: Recruitment of arrestin is a read-out of receptor activation apart from second messengers.

Experiment [2] concerns the target T1, murine CCR2. As to the kind of experiment: Functional β-arrestin recruiting test with human MCP-1 (B-2a). As to conditions: U2OS β-arrestin cell line transfected with murine CCR2; agonist human MCP-1 at EC50 (about 3 nM). How it is done: as §1, §2, §3
The target of a further experiment is T2, human CCR2 (Homo sapiens, UniProt P41597).
T2 construct: host or cells: Chem-1 cell line
T2 sequence (P41597 1-360 isoform P41597-2): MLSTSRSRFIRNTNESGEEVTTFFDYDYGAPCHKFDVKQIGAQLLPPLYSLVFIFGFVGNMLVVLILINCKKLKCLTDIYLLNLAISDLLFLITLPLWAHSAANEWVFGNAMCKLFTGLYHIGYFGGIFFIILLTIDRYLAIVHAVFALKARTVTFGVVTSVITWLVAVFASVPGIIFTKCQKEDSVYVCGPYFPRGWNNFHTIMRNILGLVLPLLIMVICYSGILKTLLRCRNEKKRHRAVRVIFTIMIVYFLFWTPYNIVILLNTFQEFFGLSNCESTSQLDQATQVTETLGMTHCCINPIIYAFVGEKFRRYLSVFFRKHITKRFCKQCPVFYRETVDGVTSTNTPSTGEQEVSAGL
Description: Functional Ca2+ release test (B-1). Particulars: Chem-1 cell line transfected with human CCR2, inhibition of MCP-1 effect, MCP-1 at EC50 (about 5 nM), Fluo-4. On the procedure:
The antagonistic action of test substances on CCR2 was determined in a functional Ca^2+ release test. Binding of CCL2/MCP-1 to CCR2 leads to a change in the conformation of the receptor resulting in Gi/Gq protein activation and intracellular signal cascade. This involves, inter alia, an intracellular Ca^2+ release. The test cell used was a Chem-1 cell line transfected with human CCR2 (ChemiSCREEN™ CCR2B Calcium-Optimized FLIPR Cell Line, Merck Millipore).
as §2
The cells, cultivated in DMEM high glucose [supplemented with 10% FCS, 1 mM pyruvate, 15 mM HEPES, 500 μg/ml geniticin and non-essential amino acids (NEAA)], were sown at 5000 cells/25 μl in 384 well, μCLEAR/black cell culture plates from Greiner (#781092) and incubated at 37° C. for 24 h. The sowing medium consisted of DMEM high glucose [supplemented with 5% FCS, 1 mM pyruvate, 15 mM HEPES, 50 U/ml penicillin, 50 μg/ml streptomycin and non-essential amino acids (NEAA)]. The medium was then removed and the cells were charged for 60 min at 37° C. with Fluo-4 dye [25 μl Tyrode with 3 μM Fluo-4 AM (1 mM DMSO stock solution), 0.4 mg/ml Brilliant Black, 2.5 mM probenicid, 0.03% Pluronic F-127]. The cells were pre-incubated for 10 min with 10 μl of the test substances diluted in buffer, and 20 μl of agonist solution (MCP-1 in Tyrode with 0.05% BSA) were then added. MCP-1 was employed at the concentration which corresponds to the EC50 which had been determined in a preliminary test (usually about 5 nM). Ca^2+ release was monitored over a period of 120 s in 1 s increments in a proprietary fluorescence imaging reader. The molar concentration of the test substance which caused 50% inhibition of the MCP-1 effect (IC50) was determined using a 4-parameter logistic function (Hill function).

T1 sequence (P51683 whole entry): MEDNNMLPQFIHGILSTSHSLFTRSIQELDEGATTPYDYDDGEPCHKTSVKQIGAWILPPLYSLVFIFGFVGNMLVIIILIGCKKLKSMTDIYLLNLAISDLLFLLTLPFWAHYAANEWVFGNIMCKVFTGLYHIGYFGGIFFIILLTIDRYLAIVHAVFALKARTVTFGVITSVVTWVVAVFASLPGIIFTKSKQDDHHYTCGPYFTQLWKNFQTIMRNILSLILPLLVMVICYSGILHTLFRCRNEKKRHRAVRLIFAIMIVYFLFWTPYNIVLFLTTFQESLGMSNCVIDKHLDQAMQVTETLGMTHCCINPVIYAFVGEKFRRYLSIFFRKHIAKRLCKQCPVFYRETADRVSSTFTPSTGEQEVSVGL

One may read the IC50 as the concentration that gives 50% inhibition. A lower IC50 goes with greater potency in that assay. In the case of `Nc1nc(C(F)(F)F)c(Cc2ccc(Cl)c(Cl)c2)c(=O)[nH]1` [Example 1, 2-Amino-5-(3,4-dichlorobenzyl)-6-(trifluoromethyl)pyrimidin-4(3H)-one], the IC50 on murine CCR2 [1] is 312 nM; at murine CCR2 [2], 200 nM; against human CCR2, 19 nM.
As for `Nc1nc(C(F)(F)F)c(Oc2ccc(Cl)c(C(F)(F)F)c2)c(=O)[nH]1` [Example 2, 2-Amino-5-[4-chloro-3-(trifluoromethyl)phenoxy]-6-(trifluoromethyl)pyrimidin-4(3H)-one], the IC50 on murine CCR2 [1] amounted to 69 nM; at murine CCR2 [2], 23 nM; against human CCR2 it was 3.3 nM.
Consider `Nc1nc(C(F)(F)F)c(Oc2ccc(Cl)c(Cl)c2)c(=O)[nH]1` [Example 3, 2-Amino-5-(3,4-dichlorophenoxy)-6-(trifluoromethyl)pyrimidin-4(3H)-one], for which the results for the concentration for half-maximal inhibition (IC50) on murine CCR2 [1], on murine CCR2 [2] and against human CCR2 were 280 nM, 49 nM and 3.4 nM, respectively.
For `Nc1nc(C(F)(F)F)c(Oc2ccc(Cl)c(OC(F)(F)F)c2)c(=O)[nH]1` [Example 57], the IC50 came out at 2270 nM on murine CCR2 [1] and 1.8 nM at human CCR2.
The corresponding values for `Nc1nc(C(F)(F)F)c(Cc2ccc(Cl)nc2)c(=O)[nH]1` [Example 58] are 60000 nM and 381 nM.
Consider `Nc1nc(C(F)(F)F)c(Cc2cnc(Cl)c(Cl)c2)c(=O)[nH]1` [Example 59], for which the concentration for half-maximal inhibition (IC50) came to 7280 nM on murine CCR2 [1] and 11 nM against human CCR2.
With `Nc1nc(C(F)(F)F)c([S+]([O-])c2ccc(Cl)c(C(F)(F)F)c2)c(=O)[nH]1` (stereo not drawn) [Example 60, 2-Amino-5-{[4-chloro-3-(trifluoromethyl)phenyl]sulphinyl}-6-(trifluoromethyl)pyrimidin-4(3H)-one], the IC50 at murine CCR2 [1] was found to be 1430 nM; against human CCR2, 117 nM.
For the compound `Nc1nc(C(F)(F)F)c(S(=O)(=O)c2ccc(Cl)c(C(F)(F)F)c2)c(=O)[nH]1` [Example 61], the IC50 at murine CCR2 [1] stood at 2950 nM; on human CCR2 it was 110 nM.
Regarding `Nc1nc(C(F)(F)F)c([S+]([O-])c2ccc(Cl)c(Cl)c2)c(=O)[nH]1` (stereo not drawn) [Example 62], the results for the IC50 at murine CCR2 [1] and on human CCR2 were 1340 nM and 542 nM, respectively.
Consider `Nc1nc(C(F)(F)F)c(S(=O)(=O)c2ccc(Cl)c(Cl)c2)c(=O)[nH]1` [Example 63], for which the IC50 worked out at 2200 nM on murine CCR2 [1] and 326 nM against human CCR2.
As for `CCNc1nc(C(F)(F)F)c(Oc2ccc(Cl)c(Cl)c2)c(=O)[nH]1` [Example 64, 5-(3,4-Dichlorophenoxy)-2-(ethylamino)-6-(trifluoromethyl)pyrimidin-4(3H)-one], the values for the IC50 at murine CCR2 [1] and on human CCR2 were 2700 nM and 13 nM, respectively.
The corresponding values for `CC(C)Nc1nc(C(F)(F)F)c(Oc2ccc(Cl)c(Cl)c2)c(=O)[nH]1` [Example 65] are 1630 nM and 121 nM.
`CNc1nc(C(F)(F)F)c(Oc2ccc(Cl)c(Cl)c2)c(=O)[nH]1` [Example 66]: the IC50 worked out at 506 nM on murine CCR2 [1] and 9.8 nM at human CCR2.
As to `O=c1[nH]c(CCO)nc(C(F)(F)F)c1Oc1ccc(Cl)c(Cl)c1` [Example 68], the 50% inhibitory concentration (IC50) on murine CCR2 [2] is 370 nM; at human CCR2, 49 nM.
`O=c1[nH]c(C2CCC2)nc(C(F)(F)F)c1Oc1ccc(Cl)c(Cl)c1` [Example 69]: the figures for the half-maximal inhibitory concentration (IC50) on murine CCR2 [1] and against human CCR2 were 523 nM and 32 nM, respectively.
The corresponding values for `CC(c1ccc(Cl)c(Cl)c1)c1c(C(F)(F)F)nc(N)[nH]c1=O` (stereo not drawn) [Example 70] are 3710 nM and 45 nM.
Take `Cc1ccc(Oc2c(C(F)(F)F)nc(N)[nH]c2=O)cc1Cl` [Example 71]: the figures for the IC50 on murine CCR2 [1] and at human CCR2 were 1720 nM and 2.4 nM, respectively.
Turning to `Cc1cc(Oc2c(C(F)(F)F)nc(N)[nH]c2=O)ccc1Cl` [Example 72], the figures for the half-inhibitory concentration (IC50) on murine CCR2 [1] and at human CCR2 were 545 nM and 1.5 nM, respectively.
Taken in the same sequence, the figures for `Nc1nc(C(F)(F)F)c(Oc2ccc(Cl)cc2)c(=O)[nH]1` [Example 73] were 2310 nM and 38 nM.
Turning to `Nc1nc(C(F)(F)F)c(Oc2ccc(C(F)(F)F)cc2)c(=O)[nH]1` [Example 74], the values for the concentration for half-maximal inhibition (IC50) on murine CCR2 [1] and against human CCR2 were 4160 nM and 50 nM, respectively.
As to `Nc1nc(C(F)(F)F)c(Oc2cccc(C(F)(F)F)c2)c(=O)[nH]1` [Example 75], the IC50 on murine CCR2 [1] turned out to be 9490 nM; at human CCR2, 21 nM.
